From ChEMBL document CHEMBL3407420, “In silico studies, synthesis and binding evaluation of substituted 2-pyrrolidinones as peptidomimetics of RGD tripeptide sequence” (Eur J Med Chem, 2015) come the findings set out here.

Experiment [1] concerns the target Integrin alpha-V/beta-5 (Homo sapiens, UniProt P06756+P18084). The experiment in a line: Binding affinity to alphaVbeta5 receptor (unknown origin). It is filed as protein-complex assay.
For experiment [2], the target named is Integrin alpha-V/beta-3 (Homo sapiens, UniProt P05106+P06756). The experiment in a line: Displacement of [125I]echistatin from purified human alphaVbeta3 receptor after 3 hrs by gamma counting. The format is protein-complex assay.
Chain of Integrin alpha-V/beta-3 (P05106 27-788 limits assumed): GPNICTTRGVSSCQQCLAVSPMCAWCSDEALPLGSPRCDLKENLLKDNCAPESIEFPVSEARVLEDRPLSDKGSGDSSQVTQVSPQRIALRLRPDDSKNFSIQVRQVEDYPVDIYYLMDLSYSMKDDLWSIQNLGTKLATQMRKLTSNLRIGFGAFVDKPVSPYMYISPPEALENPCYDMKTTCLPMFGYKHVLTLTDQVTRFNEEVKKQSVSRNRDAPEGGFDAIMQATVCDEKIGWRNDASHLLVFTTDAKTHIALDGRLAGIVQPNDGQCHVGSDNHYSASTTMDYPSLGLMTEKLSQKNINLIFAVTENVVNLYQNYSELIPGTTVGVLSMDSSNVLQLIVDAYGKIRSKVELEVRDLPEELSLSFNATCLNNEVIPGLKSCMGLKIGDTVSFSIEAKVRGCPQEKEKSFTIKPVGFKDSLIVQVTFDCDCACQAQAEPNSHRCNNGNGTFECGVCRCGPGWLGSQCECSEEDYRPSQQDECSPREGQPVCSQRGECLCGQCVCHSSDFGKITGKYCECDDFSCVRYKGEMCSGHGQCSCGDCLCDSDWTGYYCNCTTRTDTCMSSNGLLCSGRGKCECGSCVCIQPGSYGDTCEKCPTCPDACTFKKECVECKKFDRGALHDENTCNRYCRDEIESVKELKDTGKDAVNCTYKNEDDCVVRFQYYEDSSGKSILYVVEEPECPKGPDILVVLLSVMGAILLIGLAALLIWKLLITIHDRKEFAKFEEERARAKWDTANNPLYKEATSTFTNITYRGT
Chain of Integrin alpha-V/beta-3 (P06756 31-889 limits assumed): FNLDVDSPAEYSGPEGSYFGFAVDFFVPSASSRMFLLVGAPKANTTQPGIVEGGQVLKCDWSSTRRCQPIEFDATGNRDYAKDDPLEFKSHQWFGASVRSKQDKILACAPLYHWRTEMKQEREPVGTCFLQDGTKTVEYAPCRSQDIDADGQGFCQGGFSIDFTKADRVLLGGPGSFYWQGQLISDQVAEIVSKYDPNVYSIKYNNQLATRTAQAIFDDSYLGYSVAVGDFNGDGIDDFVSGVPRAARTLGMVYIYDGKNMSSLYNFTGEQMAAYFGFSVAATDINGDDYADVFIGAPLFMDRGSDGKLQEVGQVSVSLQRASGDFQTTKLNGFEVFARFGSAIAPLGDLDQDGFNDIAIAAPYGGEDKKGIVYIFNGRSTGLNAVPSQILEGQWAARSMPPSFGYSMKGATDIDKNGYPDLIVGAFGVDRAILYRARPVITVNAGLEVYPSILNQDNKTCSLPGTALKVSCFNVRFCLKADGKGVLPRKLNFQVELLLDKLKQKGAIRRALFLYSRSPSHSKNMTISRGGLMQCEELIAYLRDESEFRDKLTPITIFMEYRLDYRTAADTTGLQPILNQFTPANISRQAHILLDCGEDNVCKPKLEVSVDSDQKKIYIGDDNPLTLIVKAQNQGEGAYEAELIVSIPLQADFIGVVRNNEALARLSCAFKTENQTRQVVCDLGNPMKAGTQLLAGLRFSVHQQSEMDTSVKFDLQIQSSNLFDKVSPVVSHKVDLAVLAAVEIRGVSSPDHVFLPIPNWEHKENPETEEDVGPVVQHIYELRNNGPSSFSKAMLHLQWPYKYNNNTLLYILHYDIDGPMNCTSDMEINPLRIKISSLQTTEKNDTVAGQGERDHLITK
Chain of Integrin alpha-V/beta-3 (P06756 891-1048 limits assumed): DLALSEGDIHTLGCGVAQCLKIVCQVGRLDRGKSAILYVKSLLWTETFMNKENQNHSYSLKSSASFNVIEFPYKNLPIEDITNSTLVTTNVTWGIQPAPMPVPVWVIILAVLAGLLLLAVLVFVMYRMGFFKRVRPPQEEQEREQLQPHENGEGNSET

The pIC50 is −log10 of the IC50, conventionally taken in molar units. A high value points to a small IC50.

pIC50: −log10 of the molar value.

Chain of Integrin alpha-V/beta-5 (P06756 31-889 limits assumed): as the sequence (P06756 31-889 limits assumed) above
Chain of Integrin alpha-V/beta-5 (P06756 891-1048 limits assumed): as the sequence (P06756 891-1048 limits assumed) above
Chain of Integrin alpha-V/beta-5 (P18084 24-799 limits assumed): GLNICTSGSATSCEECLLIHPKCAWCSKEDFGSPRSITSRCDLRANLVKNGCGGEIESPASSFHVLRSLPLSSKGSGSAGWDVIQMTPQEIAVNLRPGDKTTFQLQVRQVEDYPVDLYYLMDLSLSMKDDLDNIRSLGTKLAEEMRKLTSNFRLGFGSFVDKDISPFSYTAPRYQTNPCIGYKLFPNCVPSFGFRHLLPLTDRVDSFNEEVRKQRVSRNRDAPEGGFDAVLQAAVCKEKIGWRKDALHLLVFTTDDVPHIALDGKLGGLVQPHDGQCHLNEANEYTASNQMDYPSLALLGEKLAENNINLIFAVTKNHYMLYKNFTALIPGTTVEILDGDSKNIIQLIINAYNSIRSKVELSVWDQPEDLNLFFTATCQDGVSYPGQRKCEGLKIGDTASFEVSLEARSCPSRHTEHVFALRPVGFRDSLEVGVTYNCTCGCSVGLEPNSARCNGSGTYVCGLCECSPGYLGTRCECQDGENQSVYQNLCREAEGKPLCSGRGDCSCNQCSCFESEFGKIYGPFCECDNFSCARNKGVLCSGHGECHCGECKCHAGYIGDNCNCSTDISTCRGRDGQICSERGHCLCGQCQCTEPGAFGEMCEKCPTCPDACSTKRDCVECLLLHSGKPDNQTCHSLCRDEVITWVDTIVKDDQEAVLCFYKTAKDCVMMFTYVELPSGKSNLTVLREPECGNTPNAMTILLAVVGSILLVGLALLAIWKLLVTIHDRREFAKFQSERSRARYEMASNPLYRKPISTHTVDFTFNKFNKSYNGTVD

For `N=C(N)NCCC[C@@H]1NC(=O)[C@H](CCCCN)NC(=O)[C@@H](Cc2ccccc2)NC(=O)[C@H](CC(=O)O)NC(=O)CNC1=O`, in experiment [1], the pIC50 was 4.52.
On to `N=C(N)NCCC[C@@H]1CCN([C@@H](CCCCN)C(=O)NCCC(=O)O)C1=O`, for which the pIC50 in experiment [2] was 4.30.
On the same count and under the same terms, for `N=C(N)NCCC[C@@H]1CCN([C@@H](CCCCNC(=O)OCc2ccccc2)C(=O)NCCC(=O)O)C1=O` the value was 4.00; for `N=C(N)NCCNC(=O)[C@H](CCCCNC(=O)OCc1ccccc1)N1CC[C@H](CCC(=O)O)C1=O`, less than 4.00.
